Source: US20230203043A1, “NOVEL IMIDAZOPYRAZINE DERIVATIVES” (Hoffmann-La Roche Inc., priority 2020, published 2023)
Where a name gives a salt, the structure may show the parent alone.

System: Acinetobacter baumannii ATCC17961
Assay: Antimicrobial susceptibility testing: 90% growth inhibitory concentration (IC90) determination in Iso-Sensitest broth, OD600 growth
Type: cell-based
Details: Acinetobacter baumannii, ATCC17961, 16 h, read-out: A. baumannii ATCC 17961 IC90 (uM), strain ATCC 17961, OD600 growth over 16 h
In short: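 Twofold compound dilutions (e.g. 50 to 0.097 μM final) in Iso-Sensitest broth with ~5×10^(5) CFU/ml, 35±2 °C. OD600 read every 20 min over 16 h; IC90 from growth inhibition during logarithmic phase.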

Going from `CCc1cc(Nc2nccn3c(-c4c[nH]nc4C(F)(F)F)cnc23)ccc1C(=O)NCCCNC(=O)[C@H]1CC[C@@H](N)C1` [Example 535, N-(3-((1S,3R)-3-aminocyclopentane-1-carboxamido)propyl)-2-ethyl-4-((3-(3-(trifluoromethyl)-1H-pyrazol-4-yl)imidazo[1,2-a]pyrazin-8-yl)amino)benzamide formate] to `CN(C)CCNC(=O)CNC(=O)c1ccc(Nc2nccn3c(-c4c[nH]nc4C(F)(F)F)cnc23)cc1Cl` [Example 165, 2-chloro-N-[2-[2-(dimethylamino)ethylamino]-2-oxoethyl]-4-[[3-[3-(trifluoromethyl)-1H-pyrazol-4-yl]imidazo[1,2-a]pyrazin-8-yl]amino]benzamide formate], the IC90 rises from 0.247 µM to 2.52 µM (10-fold).

`Cc1cc(Nc2nccn3c(-c4cn(CC#N)nc4C(F)(F)F)cnc23)cc(F)c1C(=O)N1CCN(C(=O)C2CCNCC2)CC1` [Example 703, 2-(4-(8-((3-fluoro-5-methyl-4-(4-(piperidine-4-carbonyl)piperazine-1-carbonyl)phenyl)amino)imidazo[1,2-a]pyrazin-3-yl)-3-(trifluoromethyl)-1H-pyrazol-1-yl)acetonitrile formate] and `Cc1cc(Nc2nccn3c(-c4cn(CC#N)nc4C(F)(F)F)cnc23)cc(F)c1C(=O)N1CCN(C(=O)CN)CC1` [Example 695, 2-(4-(8-((3-fluoro-4-(4-glycylpiperazine-1-carbonyl)-5-methylphenyl)amino)imidazo[1,2-a]pyrazin-3-yl)-3-(trifluoromethyl)-1H-pyrazol-1-yl) acetonitrile formate] are within 1.5-fold of each other in IC90: 0.383 µM for the first, 0.362 µM for the second.

`CCc1cc(Nc2nccn3c(-c4cn(CC#N)nc4C(F)(F)F)cnc23)ccc1C(=O)NCC(=O)NCC1(O)CCNCC1` [Example 525, 4-[[3-[1-(cyanomethyl)-3-(trifluoromethyl)pyrazol-4-yl]imidazo[1,2-a]pyrazin-8-yl]amino]-2-ethyl-N-[2-[(4-hydroxy-4-piperidyl)methylamino]-2-oxo-ethyl]benzamide formate] and `Cc1ccnc(Cn2cc(-c3cnc4c(Nc5ccc(C(=O)N6CCNCC6)c(Cl)c5)nccn34)c(C(F)(F)F)n2)n1` [Example 161, [2-chloro-4-[[3-[1-[(4-methylpyrimidin-2-yl)methyl]-3-(trifluoromethyl)pyrazol-4-yl]imidazo[1,2-a]pyrazin-8-yl]amino]phenyl]-piperazin-1-ylmethanone formate] are within 1.5-fold of each other in IC90: 0.593 µM for the first, 0.764 µM for the second.

`Cc1cc(Nc2nccn3c(-c4cn(C)nc4C(F)(F)F)cnc23)ccc1C(=O)N1CCN(C(=O)[C@@H]2CCNC[C@@H]2O)CC1` [Example 474, formic acid; [4-[(3R,4R)-3-hydroxypiperidine-4-carbonyl]piperazin-1-yl]-[2-methyl-4-[[3-[1-methyl-3-(trifluoromethyl)pyrazol-4-yl]imidazo[1,2-a]pyrazin-8-yl]amino]phenyl]methanone] gave an IC90 of 1.34 µM.

Same assay, conditions: Acinetobacter baumannii, ATCC17961, 16 h, strain ATCC 17961, OD600 growth over 16 h, read-out: A. baumannii ATCC 17961 IC90

Going from `CCc1cc(Nc2nccn3c(-c4cn(COC)nc4C(F)F)cnc23)ccc1C(=O)N1CCN(C(=O)CN)CC1` [Example 771, 2-amino-1-(4-(4-((3-(3-(difluoromethyl)-1-(methoxymethyl)-1H-pyrazol-4-yl)imidazo[1,2-a]pyrazin-8-yl)amino)-2-ethylbenzoyl)piperazin-1-yl)ethan-1-one] to `C#CCn1cc(-c2cnc3c(Nc4ccc(C(=O)N5CCN(C(=O)[C@@H](C)N)CC5)c(CC)c4)nccn23)c(C(F)F)n1` [Example 747, (R)-2-amino-1-(4-(4-((3-(3-(difluoromethyl)-1-(prop-2-yn-1-yl)-1H-pyrazol-4-yl)imidazo[1,2-a]pyrazin-8-yl)amino)-2-ethylbenzoyl)piperazin-1-yl)propan-1-one], the IC90 falls from 0.953 µM to 0.598 µM (1.6-fold).

Compared with `Cc1cc(Nc2nccn3c(-c4c[nH]nc4C(F)(F)F)cnc23)cc(F)c1C(=O)NCCOCCN` [Example 80, N-[2-(2-aminoethoxy)ethyl]-2-fluoro-6-methyl-4-[[3-[3-(trifluoromethyl)-1H-pyrazol-4-yl]imidazo[1,2-a]pyrazin-8-yl]amino]benzamide], `CCc1cc(Nc2nccn3c(-c4c[nH]nc4C(F)(F)F)cnc23)ccc1C(=O)NCCNC(=O)[C@H]1C[C@H](N)C1` [Example 567, N-(2-((1r,3r)-3-aminocyclobutane-1-carboxamido)ethyl)-2-ethyl-4-((3-(3-(trifluoromethyl)-1H-pyrazol-4-yl)imidazo[1,2-a]pyrazin-8-yl)amino) benzamide formate] is 1.5-fold lower in IC90: 0.737 µM for the first, 0.476 µM for the second.

First: CCc1cc(Nc2nccn3c(-c4cn(CCF)nc4C(F)(F)F)cnc23)ccc1C(=O)N[C@H](C)CN [Example 110, N-[(2R)-1-aminopropan-2-yl]-2-ethyl-4-[[3-[1-(2-fluoroethyl)-3-(trifluoromethyl)pyrazol-4-yl]imidazo[1,2-a]pyrazin-8-yl]amino]benzamide]
Second: CCc1cc(Nc2nccn3c(-c4cn(CC(F)F)nc4C(F)(F)F)cnc23)ccc1C(=O)NCCCN [Example 52, N-(3-aminopropyl)-4-[[3-[1-(2,2-difluoroethyl)-3-(trifluoromethyl)pyrazol-4-yl]imidazo[1,2-a]pyrazin-8-yl]amino]-2-ethylbenzamide]
The IC90 of the first is 3.5-fold higher: 0.506 µM for the first, 0.144 µM for the second.

`Cc1cc(Nc2nccn3c(-c4cn(CC(F)F)nc4C(F)(F)F)cnc23)cc(F)c1C(=O)N[C@H](C)CNC(=O)[C@H]1[C@@H]2CNC[C@@H]21` [Example 653, (1R,5S,6r)-N-((R)-2-(4-((3-(1-(2,2-difluoroethyl)-3-(trifluoromethyl)-1H-pyrazol-4-yl)imidazo [1,2-a]pyrazin-8-yl)amino)-2-fluoro-6-methylbenzamido)propyl)-3-azabicyclo[3.1.0]hexane-6-carboxamide] and `Cc1cc(Nc2nccn3c(-c4cn(CC#N)nc4C(F)(F)F)cnc23)ccc1C(=O)NCC(=O)N1CC[C@@H](N)C1` [Example 686, N-[2-[(3R)-3-aminopyrrolidin-1-yl]-2-oxo-ethyl]-4-[[3-[1-(cyanomethyl)-3-(trifluoromethyl)pyrazol-4-yl]imidazo[1,2-a]pyrazin-8-yl]amino]-2-methyl-benzamide] are within 1.5-fold of each other in IC90: 0.259 µM for the first, 0.343 µM for the second.

Going from `O=C(c1ccc(Nc2nccn3c(-c4c[nH]nc4C(F)(F)F)cnc23)cc1Cl)N1CCN(C(=O)[C@H]2[C@@H]3CNC[C@@H]32)CC1` [Example 516, (4-((1R,5S,6r)-3-azabicyclo[3.1.0]hexane-6-earbonyl)piperazin-1-yl) (2-chloro-4-((3-(3-(trifluoromethyl)-1H-pyrazol-4-yl)imidazo[1,2-a]pyrazin-8-yl)amino)phenyl)methanone formate] to `O=C(c1ccc(Nc2nccn3c(-c4c[nH]nc4C(F)(F)F)cnc23)cc1Cl)N1CCN(C(=O)[C@H]2CNC[C@H](O)C2)CC1` (racemic) [Example 353, [2-chloro-4-[[3-[3-(trifluoromethyl)-1H-pyrazol-4-yl]imidazo[1,2-a]pyrazin-8-yl]amino]phenyl]-[4-[rac-(3R,5R)-5-hydroxypiperidine-3-carbonyl]piperazin-1-yl]methanone], the IC90 rises from 0.14 µM to 0.241 µM (1.7-fold).

Going from `Cc1cc(Nc2nccn3c(-c4c[nH]nc4C(F)(F)F)cnc23)ccc1C(=O)N1CCN(C(=O)[C@@H](C)N)CC1` [Example 334, (2R)-2-amino-1-[4-[2-methyl-4-[[3-[3-(trifluoromethyl)-1H-pyrazol-4-yl]imidazo[1,2-a]pyrazin-8-yl]amino]benzoyl]piperazin-1-yl]propan-1-one] to `N#CCn1cc(-c2cnc3c(Nc4ccc(C(=O)N5CCN(C(=O)CN)CC5)c(Cl)c4)nccn23)c(C(F)(F)F)n1` [Example 132, 2-[4-[8-[4-[4-(2-aminoacetyl)piperazine-1-carbonyl]-3-chloroanilino]imidazo[1,2-a]pyrazin-3-yl]-3-(trifluoromethyl)pyrazol-1-yl]acetonitrile], the IC90 falls from 0.782 µM to 0.136 µM (5.8-fold).

Compared with `C#CC(C)n1cc(-c2cnc3c(Nc4ccc(C(=O)N5CCN(C(=O)[C@H](N)C(C)C)CC5)c(CC)c4)nccn23)c(C(F)F)n1` (mixture of isomers) [Example 799, (2R)-2-amino-1-(4-(4-((3-(1-(but-3-yn-2-yl)-3-(difluoromethyl)-1H-pyrazol-4-yl)imidazo [1,2-a]pyrazin-8-yl)amino)-2-ethylbenzoyl)piperazin-1-yl)-3-methylbutan-1-one (mixture of epimers)], `O=C(NC1CCCN(C(=O)[C@H]2C[C@H](O)CN2)C1)c1ccc(Nc2nccn3c(-c4c[nH]nc4C(F)(F)F)cnc23)cc1Cl` (mixture of isomers) [Example 387, 2-chloro-N-[1-[rac-(2R,4S)-4-hydroxypyrrolidine-2-carbonyl]piperidine-3-yl]-4-[[3-[3-(trifluoromethyl)-1H-pyrazol-4-yl]imidazo[1,2-a]pyrazin-8-yl]amino]benzamide] is 1.8-fold higher in IC90: 2.74 µM for the first, 4.84 µM for the second.

Same assay, conditions: strain ATCC 17961, OD600 growth over 16 h, read-out: A. baumannii ATCC 17961 IC90

Compared with `NC1CC(NC(=O)c2ccc(Nc3nccn4c(-c5c[nH]nc5C(F)(F)F)cnc34)cc2Cl)C1` (stereo not drawn) [Example 403, N-(3-aminocyclobutyl)-2-chloro-4-[[3-[3-(trifluoromethyl)-1H-pyrazol-4-yl]imidazo[1,2-a]pyrazin-8-yl]amino]benzamide], `CCc1cc(Nc2nccn3c(-c4cn(CC(F)F)nc4C(F)(F)F)cnc23)ccc1C(=O)N[C@H](C)CNC(=O)OC(C)(C)C` [Example 130, tert-butyl N-[(2R)-2-[[4-[[3-[1-(2,2-difluoroethyl)-3-(trifluoromethyl)pyrazol-4-yl]imidazo[1,2-a]pyrazin-8-yl]amino]-2-ethylbenzoyl]amino]propyl] carbamate] is 3.3-fold higher in IC90: 0.398 µM for the first, 1.33 µM for the second.

`C#CCNCCCNC(=O)c1c(C)cc(Nc2nccn3c(-c4cn(CC(F)F)nc4C(F)(F)F)cnc23)cc1F` [Example 68, 4-[[3-[1-(2,2-difluoroethyl)-3-(trifluoromethyl)pyrazol-4-yl]imidazo[1,2-a]pyrazin-8-yl]amino]-2-fluoro-6-methyl-N-[3-(prop-2-ynylamino)propyl] benzamide] gave an IC90 of 0.43 µM.
